From patent US12552804B2, “Tricyclic heterocycles as FGFR inhibitors” (Incyte Corporation, priority 2019, dated 2026)

Target: wild-type un-phosphorylated FGFR3 protein (Homo sapiens, UniProt P22607)
Experiment: FGFR Enzymatic Assay (FRET detection of peptide phosphorylation)
Format: biochemical
Conditions: pre-incubated for 4 hours, read-out: FGFR3_Ki
Description: The inhibitor potency of the exemplified compounds was determined in an enzyme discontinuous assay that measures peptide phosphorylation using FRET measurements to detect product formation. Inhibitors were serially diluted in DMSO and a volume of 0.2 μL was transferred to the wells of a 384-well plate. A 5 μL/well volume of enzyme isoforms of FGFR (−1, −2, −3 wild-type and mutant isoforms, −4) including phosphorylated and un-phosphorylated proteins diluted in assay buffer (50 mM HEPES, 10 mM MgCl2, 1 mM EGTA, 0.01% Tween-20, 5 mM DTT, pH 7.5) was added to the plate and pre-incubated with inhibitor for 5 to 15 minutes at ambient temperature. Appropriate controls (enzyme blank and enzyme with no inhibitor) were included on the plate. […] The ATP Km values were pre-determined in a separate series of experiments. The reaction plate was incubated at 25° C. for 1 hr and the reactions were ended with the addition of 5 μL/well of quench solution (50 mM Tris, 150 mM NaCl, 0.5 mg/mL BSA, pH 7.8; 45 mM EDTA, 600 nM staurosporin, with Perkin Elmer Lance Reagents at 3.75 nM Eu-antibody PY20 and 180 nM APC-Streptavidin). The plate was allowed to equilibrate for ˜10 minutes at ambient temperature before scanning on a PheraStar plate reader (BMG Labtech) instrument.
Either GraphPad prism or XLfit was used to analyze the data. The IC50 values were derived by fitting the data to a four parameter logistic equation producing a sigmoidal dose-response curve with a variable Hill coefficient. Prism equation: Y=Bottom+(Top−Bottom)/(1+10^((LogIC50−X)*Hill slope)); XLfit equation: Y=(A+((B−A)/(1+((X/C)^D)))) where X is the logarithm of inhibitor concentration and Y is the response.
The data in Table 1 was measured in wild-type un-phosphorylated FGFR3 protein.

Sequence of wild-type un-phosphorylated FGFR3 protein (P22607 23-806): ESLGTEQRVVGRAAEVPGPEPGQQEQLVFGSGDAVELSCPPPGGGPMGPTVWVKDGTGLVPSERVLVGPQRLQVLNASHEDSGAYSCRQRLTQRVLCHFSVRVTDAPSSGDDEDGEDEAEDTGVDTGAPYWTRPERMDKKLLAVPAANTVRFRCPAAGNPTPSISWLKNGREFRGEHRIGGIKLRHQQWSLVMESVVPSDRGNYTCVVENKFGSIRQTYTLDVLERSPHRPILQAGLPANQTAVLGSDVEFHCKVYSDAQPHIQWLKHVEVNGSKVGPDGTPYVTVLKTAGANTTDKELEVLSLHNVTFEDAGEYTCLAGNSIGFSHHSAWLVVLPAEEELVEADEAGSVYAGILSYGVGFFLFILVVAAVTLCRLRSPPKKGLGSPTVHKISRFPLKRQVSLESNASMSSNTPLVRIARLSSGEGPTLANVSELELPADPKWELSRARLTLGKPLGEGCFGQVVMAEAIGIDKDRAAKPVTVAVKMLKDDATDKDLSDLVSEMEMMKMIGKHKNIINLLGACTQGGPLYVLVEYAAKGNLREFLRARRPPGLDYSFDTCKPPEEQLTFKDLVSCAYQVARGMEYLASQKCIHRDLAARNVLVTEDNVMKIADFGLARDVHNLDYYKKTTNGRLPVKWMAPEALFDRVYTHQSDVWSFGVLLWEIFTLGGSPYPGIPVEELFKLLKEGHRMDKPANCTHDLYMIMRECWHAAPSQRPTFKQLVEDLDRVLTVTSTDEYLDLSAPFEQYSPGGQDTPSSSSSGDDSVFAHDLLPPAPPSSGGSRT

SMILES	Ki
O=C(O)[C@H]1CC[C@H](n2cc(-c3cnc4ccn5c(C6CC6)c(-c6ccccc6Cl)nc5c4c3)cn2)CC1 [Example 16, (1R,4R)-4-(4-(2-(2-Chlorophenyl)-3-cyclopropylimidazo[2,1-f][1,6]naphthyridin-9-yl)-1H-pyrazol-1-yl)cyclohexane-1-carboxylic acid]	< 10 nM
CC(=O)N[C@H]1CC[C@H](n2cc(-c3cnc4ccn5c(C6CC6)c(-c6ccccc6Cl)nc5c4c3)cn2)CC1 [Example 17, N-((1R,4R)-4-(4-(2-(2-Chlorophenyl)-3-cyclopropylimidazo[2,1-f][1,6]naphthyridin-9-yl)-1H-pyrazol-1-yl)cyclohexyl)acetamide]	< 10 nM
Cc1cccc(F)c1-c1nc2c3nc(-c4cnn(C)c4)cnc3ccc2n1C [Example 18, 2-(2-Fluoro-6-methylphenyl)-3-methyl-8-(1-methyl-1H-pyrazol-4-yl)-3H-imidazo[4,5-f]quinoxaline]	10 to 100 nM
COc1ccc(-c2nc3c4nc(-c5cnn(C)c5)cnc4ccc3n2C)c(Cl)c1 [Example 19, 2-(2-Chloro-4-methoxyphenyl)-3-methyl-8-(1-methyl-1H-pyrazol-4-yl)-3H-imidazo[4,5-f]quinoxaline]	100 to 400 nM
Cc1ccoc1-c1nc2c3nc(-c4cnn(C)c4)cnc3ccc2n1C [Example 20, 3-Methyl-8-(1-methyl-1H-pyrazol-4-yl)-2-(3-methylfuran-2-yl)-3H-imidazo[4,5-f]quinoxaline]	100 to 400 nM
Cn1c(-c2c(F)cccc2Cl)nc2c3nc(-c4cnn(C5CC(O)C5)c4)cnc3ccc21 (stereo not shown) [Example 21, 3-(4-(2-(2-Chloro-6-fluorophenyl)-3-methyl-3H-imidazo[4,5-f]quinoxalin-8-yl)-1H-pyrazol-1-yl)cyclobutan-1-ol]	< 10 nM
CC(=O)N1CCN(c2ccc(-c3cnc4ccc5c(nc(-c6c(F)cccc6Cl)n5C)c4n3)cn2)CC1 [Example 22, 1-(4-(5-(2-(2-Chloro-6-fluorophenyl)-3-methyl-3H-imidazo[4,5-f]quinoxalin-8-yl)pyridin-2-yl)piperazin-1-yl)ethan-1-one]	< 10 nM
CN1CCC(c2nc3c4nc(-c5cnn(C)c5)cnc4ccc3n2C)CC1 [Example 23, 3-Methyl-8-(1-methyl-1H-pyrazol-4-yl)-2-(1-methylpiperidin-4-yl)-3H-imidazo[4,5-f]quinoxaline]	≥ 400 nM
Cn1cc(-c2cnc3ccc4c(nc(N5[C@@H]6CC[C@H]5C(=O)NC6)n4C)c3n2)cn1 [Example 24, (1S,5R)-8-(3-Methyl-8-(1-methyl-1H-pyrazol-4-yl)-3H-imidazo[4,5-f]quinoxalin-2-yl)-3,8-diazabicyclo[3.2.1]octan-2-one]	≥ 400 nM
Cc1c(-c2c(Cl)cccc2C(F)(F)F)nc2c3cc(-c4cnn([C@H]5CCN(C(=O)CO)C5)c4)cnc3ccn12 [Example 25, (S)-1-(3-(4-(2-(2-Chloro-6-(trifluoromethyl)phenyl)-3-methylimidazo[2,1-f][1,6]naphthyridin-9-yl)-1H-pyrazol-1-yl)pyrrolidin-1-yl)-2-hydroxyethan-1-one]	< 10 nM
Cc1cccc(C)c1-c1nc2c3cc(-c4cnn([C@H]5CCN(C(=O)CO)C5)c4)cnc3ccn2c1C [Example 26, (S)-1-(3-(4-(2-(2,6-Dimethylphenyl)-3-methylimidazo[2,1-f][1,6]naphthyridin-9-yl)-1H-pyrazol-1-yl)pyrrolidin-1-yl)-2-hydroxyethan-1-one]	< 10 nM
Cc1c(-c2c(F)cccc2C#N)nc2c3cc(-c4cnn([C@H]5CCN(C(=O)CO)C5)c4)cnc3ccn12 [Example 27, (S)-3-Fluoro-2-(9-(1-(1-(2-hydroxyacetyl)pyrrolidin-3-yl)-1H-pyrazol-4-yl)-3-methylimidazo[2,1-f][1,6]naphthyridin-2-yl)benzonitrile]	10 to 100 nM
COc1cccc(F)c1-c1nc2c3cc(-c4cnn([C@H]5CCN(C(=O)CO)C5)c4)cnc3ccn2c1C [Example 28, (S)-1-(3-(4-(2-(2-Fluoro-6-methoxyphenyl)-3-methylimidazo[2,1-f][1,6]naphthyridin-9-yl)-1H-pyrazol-1-yl)pyrrolidin-1-yl)-2-hydroxyethan-1-one]	10 to 100 nM
Cc1cccc(-c2nc3c4cc(-c5cnn(C)c5)cnc4ccn3c2C)c1C [Example 29, 2-(2,3-Dimethylphenyl)-3-methyl-9-(1-methyl-1H-pyrazol-4-yl)imidazo[2,1-f][1,6]naphthyridine]	10 to 100 nM
Cc1cc(CO)ccc1-c1nc2c3cc(-c4cnn(C)c4)cnc3ccn2c1C [Example 30, (3-Methyl-4-(3-methyl-9-(1-methyl-1H-pyrazol-4-yl)imidazo[2,1-f][1,6]naphthyridin-2-yl)phenyl)methanol]	10 to 100 nM
Cc1c(-c2c(Cl)cccc2Cl)nc2c3cc(-c4cnn(C)c4)c(O)nc3ccn12 [Example 31, 2-(2,6-Dichlorophenyl)-3-methyl-9-(1-methyl-1H-pyrazol-4-yl)imidazo[2,1-f][1,6]naphthyridin-8-ol]	10 to 100 nM
Cc1c(-c2c(Cl)cccc2Cl)nc2c3c(O[C@H]4CCOC4)c(-c4cnn(C)c4)cnc3ccn12 [Example 32, (S)-2-(2,6-Dichlorophenyl)-3-methyl-9-(1-methyl-1H-pyrazol-4-yl)-10-((tetrahydrofuran-3-yl)oxy)imidazo[2,1-f][1,6]naphthyridine]	100 to 400 nM
Cc1c(-c2c(Cl)cccc2Cl)nc2c3cc(-c4cnn(C)c4)c(N(C)C)nc3ccn12 [Example 33, 2-(2,6-Dichlorophenyl)-N,N,3-trimethyl-9-(1-methyl-1H-pyrazol-4-yl)imidazo[2,1-f][1,6]naphthyridin-8-amine]	10 to 100 nM
C=CC(=O)Nc1ccc(Cl)c(-c2nc3c4cc(-c5cnn(C)c5)cnc4ccn3c2C)c1Cl [Example 34, N-(2,4-Dichloro-3-(3-methyl-9-(1-methyl-1H-pyrazol-4-yl)imidazo[2,1-f][1,6]naphthyridin-2-yl)phenyl)acrylamide]	< 10 nM
C=CC(=O)Nc1cccc(-c2nc3c4cc(-c5cnn(C)c5)cnc4ccn3c2C)c1 [Example 35, N-(3-(3-Methyl-9-(1-methyl-1H-pyrazol-4-yl)imidazo[2,1-f][1,6]naphthyridin-2-yl)phenyl)acrylamide]	10 to 100 nM
C=CC(=O)Nc1ccccc1-c1nc2c3cc(-c4cnn(C)c4)cnc3ccn2c1C [Example 36, N-(2-(3-Methyl-9-(1-methyl-1H-pyrazol-4-yl)imidazo[2,1-f][1,6]naphthyridin-2-yl)phenyl)acrylamide]	100 to 400 nM
Cc1c(-c2c(Cl)cccc2Cl)nc2c3cc(-c4cnn(C5CN(C(=O)C6(N)CC6)C5)c4)cnc3ccn12 [Example 37, (1-Aminocyclopropyl)(3-(4-(2-(2,6-dichlorophenyl)-3-methylimidazo[2,1-f][1,6]naphthyridin-9-yl)-1H-pyrazol-1-yl)azetidin-1-yl)methanone]	< 10 nM
Cc1c(-c2c(Cl)cccc2Cl)nc2c3cc(-c4cnn(C5CN(C(=O)Cn6ccnc6)C5)c4)cnc3ccn12 [Example 38, 1-(3-(4-(2-(2,6-Dichlorophenyl)-3-methylimidazo[2,1-f][1,6]naphthyridin-9-yl)-1H-pyrazol-1-yl)azetidin-1-yl)-2-(1H-imidazol-1-yl)ethan-1-one]	< 10 nM
Cc1c(-c2c(Cl)cccc2Cl)nc2c3cc(-c4cnn(C5CN(C(=O)c6cocn6)C5)c4)cnc3ccn12 [Example 39, (3-(4-(2-(2,6-Dichlorophenyl)-3-methylimidazo[2,1-f][1,6]naphthyridin-9-yl)-1H-pyrazol-1-yl)azetidin-1-yl)(oxazol-4-yl)methanone]	< 10 nM
Cc1c(-c2c(Cl)cccc2Cl)nc2c3cc(-c4cnn(C5CN(C(=O)C6(N)CCOCC6)C5)c4)cnc3ccn12 [Example 40, (4-Aminotetrahydro-2H-pyran-4-yl)(3-(4-(2-(2,6-dichlorophenyl)-3-methylimidazo[2,1-f][1,6]naphthyridin-9-yl)-1H-pyrazol-1-yl)azetidin-1-yl)methanone]	< 10 nM
Cc1c(-c2c(Cl)cccc2Cl)nc2c3cc(-c4cnn(C5CN(C(=O)CC#N)C5)c4)cnc3ccn12 [Example 41, 3-(3-(4-(2-(2,6-Dichlorophenyl)-3-methylimidazo[2,1-f][1,6]naphthyridin-9-yl)-1H-pyrazol-1-yl)azetidin-1-yl)-3-oxopropanenitrile]	< 10 nM
O=C(O)c1ccc(Cn2cc(-c3cnc4ccn5cc(-c6c(Cl)cccc6Cl)nc5c4c3)cn2)cc1F [Example 42, 4-((4-(2-(2,6-Dichlorophenyl)imidazo[2,1-f][1,6]naphthyridin-9-yl)-1H-pyrazol-1-yl)methyl)-2-fluorobenzoic acid]	< 10 nM
CN(C)C(=O)c1ccc(-n2cc(-c3cnc4ccn5cc(-c6c(Cl)cccc6Cl)nc5c4c3)cn2)cc1 [Example 43, 4-(4-(2-(2,6-Dichlorophenyl)imidazo[2,1-f][1,6]naphthyridin-9-yl)-1H-pyrazol-1-yl)-N,N-dimethylbenzamide]	10 to 100 nM
